These results are taken from article PMC9841521, “Subnanomolar Affinity and Selective Antagonism at α7 Nicotinic Receptor by Combined Modifications of 2-Triethylammonium Ethyl Ether of 4-Stilbenol (MG624)” (Journal of Medicinal Chemistry, 2022).

The Ki is a dissociation constant, usually derived from enzyme kinetics or from competition with a known ligand. By IC50 is commonly meant the midpoint of a concentration-inhibition curve.

Experiment [1] deals with T1, human α3β4-nAChR subtype (Homo sapiens, UniProt P30926+P32297).
T1 construct: expressed in transfected cells
Kind of experiment: Competition binding with [3H]epibatidine, membranes of SH-EP1 cells stably transfected with α3 and β4. The following applies: for Ki: human α3β4 expressed in SH-EP1 cells, confidence interval in parentheses, read-out: α3β4-nAChR [3H]-Epi Ki.

For experiment [2], the target named is T2, human α4β2-nAChR subtype (Homo sapiens, UniProt P17787+P43681).
T2 construct: expressed in transfected cells; gift of Dr. Jon Lindstrom
As to the kind of experiment: Competition binding with [3H]epibatidine, membranes of HEK 293 cells stably transfected with α4 and β2. The following applies: human α4β2 expressed in HEK 293 cells; confidence interval in parentheses; read-out: α4β2-nAChR [3H]-Epi Ki.

In experiment [3] the target is human α7-nAChR (Homo sapiens, UniProt P36544). Kind of experiment: Two-electrode voltage clamp, antagonism of currents activated by 1 mM ACh, test compound coapplied, X. laevis oocytes. It is filed as cell-based. The following applies: for inhibition of ACh-induced function at the α7-nAChR: maximal inhibition. Background: Two-electrode voltage clamp is typically applied to oocytes expressing channels or transporters.

Experiment [4] has as its target T3, human α9α10-nAChR (Homo sapiens, UniProt Q9GZZ6+Q9UGM1).
T3 construct: expressed in transfected cells; host or cells: Xenopus laevis oocytes (cRNA injection, α9:α10 9:1)
As to the kind of experiment: Two-electrode voltage clamp, antagonism of currents activated by 1 mM ACh, test compound coapplied, X. laevis oocytes (α9:α10 cRNA 9:1). It is filed as cell-based. The following applies: coapplied with 1 mM ACh; for IC50 / inhibition of ACh-induced α9α10-nAChR function (in words): up to 100 μM; for IC50: 95% confidence interval in parentheses; for inhibition of ACh-induced function at the α9α10-nAChR: maximal inhibition.

Experiment [5] deals with T3, human α9α10-nAChR. Kind of experiment: Two-electrode voltage clamp, compound applied alone at 100 μM: intrinsic activity, rebound current, residual ACh response. It is filed as cell-based. The following applies: for partial agonism of α9α10-nAChRs, efficacy (AUC) / partial agonism of α9α10-nAChRs, efficacy (peak current): 100 μM pulse, alone, vs 1 mM ACh, range over the named compounds.

[6] abbreviates: coapplied with 1 mM ACh, up to 100 μM, 95% confidence interval in parentheses, NA = not inhibited even at 100 μM, read-out: α7 IC50 (AUC).
Setting [7] is: coapplied with 1 mM ACh, up to 100 μM, 95% confidence interval in parentheses, NA = not inhibited even at 100 μM, read-out: α7 IC50 (peak current).
Where [8] appears, read: coapplied with 1 mM ACh, up to 100 μM.

Entries after “also recorded” stand apart in the source; their conditions may differ. Where two headings read alike, the source gives them in different places.

Turning to `CC[N+](CC)(CC)CCOc1ccccc1` [Compound 3, N,N,N-Triethyl-2-phenoxyethan-1-aminium Iodide], the Ki in experiment [1] turned out to be 10 µM; in experiment [2], 19 µM.
The like results for `CC[N+](CC)(CC)CCOc1ccc(/C=C/c2ccc(O)cc2)cc1` [Compound 20, (E)-N,N,N-Triethyl-2-(4-(4-hydroxystyryl)phenoxy)ethan-1-aminium Iodide] were, in that order, 0.873 µM and 9.82 µM.
As for `CC[N+](CC)(CC)CCOc1ccc(OCc2ccccc2)cc1` [Compound 23, 2-(4-(Benzyloxy)phenoxy)-N,N,N-triethylethan-1-aminium Iodide], the Ki in experiment [1] is 4.7 µM.
As to `CC[N+](CC)(CC)CCOc1ccc(/C=C/c2cccc3ccccc23)cc1` [Compound 10, (E)-N,N,N-Triethyl-2-(4-(2-(naphthalen-1-yl)vinyl)phenoxy)ethan-1-aminium Iodide], the Ki in experiment [1] came out at 0.501 µM.
As for `CC[N+](CC)(CC)CCOc1ccc(-c2nc3ccccc3[nH]2)cc1` [Compound 29, 2-(4-(1H-Benzo[d]imidazol-2-yl)phenoxy)-N,N,N-triethylethan-1-aminium Iodide], in experiment [1], the Ki was 0.345 µM. Besides, the IC50 was 197 µM in experiment [3] (setting [6]), 182 µM in experiment [3] (setting [7]) and 202 µM in experiment [4].
Take `CC[N+](CC)(CC)CCOc1ccc(C#Cc2ccccc2)cc1` [Compound 7, N,N,N-Triethyl-2-(4-(phenylethynyl)phenoxy)ethan-1-aminium Iodide]: the inhibition constant (Ki) was determined as 0.912 µM in experiment [1] and 19.4 µM in experiment [2].
Consider `C[N+]1(C)CC[C@@H](Oc2ccc(-c3ccc4[nH]ccc4c3)cc2)C1.[I-]` [Compound 33, (R)-3-(4-(1H-Indol-5-yl)phenoxy)-1,1-dimethylpyrrolidin-1-ium Iodide], for which the Ki in experiment [1] stood at 0.365 µM. The Ki in experiment [2] stood at 5.1 µM. For the same compound, in experiment [4], the “inhibition of ACh-induced α9α10-nAChR function (in words)” value was “complete or nearly complete inhibition”, the IC50 amounted to 15.9 µM and the “inhibition of ACh-induced function at the α9α10-nAChR” value (shortened to “inhibition … at the α9α10-nAChR”) was determined as 100%. In experiment [5], the “partial agonism of α9α10-nAChRs, efficacy (AUC)” value is reported as 0.2–3 % of ACh control and the “partial agonism of α9α10-nAChRs, efficacy (peak current)” value is 5–55 % of ACh control. In addition, in experiment [5] (1 min after test compound, Figure 4), the “recovery of rebound current at α9α10-nAChR (in words)” value is listed as “almost complete recovery”. Moreover, in experiment [5] (final ACh control 1 min after test compound, Figure 4), the “residual ACh-induced current at α9α10-nAChR (in words)” value was “highest residual ACh-induced currents”.
Take `C=Cc1ccc(OCC[N+](CC)(CC)CC)cc1` [Compound 4, N,N,N-Triethyl-2-(4-vinylphenoxy)ethan-1-aminium Iodide]: the Ki amounted to 1.07 µM in experiment [1] and 24 µM in experiment [2].
Turning to `CC[N+](CC)(CC)CCOc1ccc(CCc2ccccc2)cc1.[I-]` [Compound 6, N,N,N-Triethyl-2-(4-phenethylphenoxy)ethan-1-aminium Iodide], the Ki in experiment [1] was found to be 1.25 µM. For the same compound, the “inhibition of ACh-induced α7-nAChR function (in words)” value in experiment [3] (setting [8]) is listed as “no inhibition; also recorded: no effect; also recorded: devoid of α7-nAChR antagonism”. Also, in experiment [3] (supplementary CSV), the “alpha7 nAChR IC50 (AUC)” value is recorded as “not active” and the “alpha7 nAChR IC50 (peak current)” value is “not active”. In experiment [4], the “inhibition of ACh-induced α9α10-nAChR function (in words)” value was “essentially full inhibition” and the IC50 stood at 9.12 µM. Further, in experiment [5], the “partial agonism of α9α10-nAChRs, efficacy (AUC)” value is 0.2–3 % of ACh control and the “partial agonism of α9α10-nAChRs, efficacy (peak current)” value is reported as 5–55 % of ACh control. Besides, the “block of subsequent ACh-induced function at α9α10-nAChRs (in words)” value in experiment [5] (final 1 mM ACh 1 min after 100 μM compound, Figure 3B) was “significantly block”.
In the case of `CC[N+](CC)(CC)CCOc1ccc(-c2ccc3ccccc3c2)cc1` [Compound 8, N,N,N-Triethyl-2-(4-(naphthalen-2-yl)phenoxy)ethan-1-aminium Iodide], the values for the Ki in experiment [1] and in experiment [2] were 0.458 µM and 1.8 µM, respectively.
With `CC[N+](CC)(CC)CCOc1ccc(-c2ccc3[nH]ccc3c2)cc1.[I-]` [Compound 31, 2-(4-(1H-Indol-5-yl)phenoxy)-N,N,N-triethylethan-1-aminium Iodide], the Ki in experiment [1] came out at 0.177 µM. Further, the “inhibition of ACh-induced α7-nAChR function (in words)” value in experiment [3] (setting [8]) is “complete or nearly complete inhibition”. Also, the IC50 in experiment [3] (setting [6]) is 1.86 µM; in experiment [3] (setting [7]), 2.01 µM; in experiment [4], 8.13 µM. Further, the “inhibition of ACh-induced function at the α7-nAChR” value in experiment [3] (coapplied with 1 mM ACh) was 100%. In addition, in experiment [4], the “inhibition of ACh-induced α9α10-nAChR function (in words)” value is “complete or nearly complete inhibition”. The “inhibition … at the α9α10-nAChR” value in experiment [4] was found to be 100%.
As for `CC[N+](CC)(CC)CCOc1ccc(NC(=O)c2ccccc2)cc1` [Compound 25, 2-(4-Benzamidophenoxy)-N,N,N-triethylethan-1-aminium Iodide], the Ki in experiment [1] stood at 1.07 µM; in experiment [2], 4.5 µM. Further, the IC50 in experiment [3] (setting [6]) worked out at 26.9 µM; in experiment [3] (setting [7]), 25.7 µM; in experiment [4], 115 µM.
`CC[N+](CC)(CC)CCOc1ccc(-c2ccc3occc3c2)cc1` [Compound 32, 2-(4-(Benzofuran-5-yl)phenoxy)-N,N,N-triethylethan-1-aminium Iodide]: the Ki in experiment [1] came to 0.343 µM.
`CC[N+](CC)(CC)CCOc1ccc(-c2ccc3cc[nH]c3c2)cc1.[I-]` [Compound 30, 2-(4-(1H-Indol-6-yl)phenoxy)-N,N,N-triethylethan-1-aminium Iodide]: the Ki in experiment [1] was determined as 0.174 µM. In addition, in experiment [3] (setting [8]), the “inhibition of ACh-induced α7-nAChR function (in words)” value is recorded as “complete or nearly complete inhibition”. In addition, the IC50 in experiment [3] (setting [6]) stood at 1.95 µM. For the same compound, the IC50 in experiment [3] (setting [7]) was 1.91 µM. Besides, the “inhibition of ACh-induced function at the α7-nAChR” value in experiment [3] (coapplied with 1 mM ACh) is 100%. In experiment [4], the “inhibition of ACh-induced α9α10-nAChR function (in words)” value was “complete or nearly complete inhibition”, the IC50 came out at 6.46 µM and the “inhibition … at the α9α10-nAChR” value is 100%.
In the case of `CC[N+](CC)(CC)CCOc1ccc(/C=C/c2cc(O)cc(O)c2)cc1` [Compound 22, (E)-2-(4-(3,5-Dihydroxystyryl)phenoxy)-N,N,N-triethylethan-1-aminium Iodide], the Ki amounted to 0.793 µM in experiment [1] and 7.24 µM in experiment [2].
Turning to `CC[N+](CC)(CC)CCOc1ccc(-c2ccccc2)cc1` [Compound 5, 2-([1,1′-Biphenyl]-4-yloxy)-N,N,N-triethylethan-1-aminium Iodide], the values for the Ki in experiment [1] and in experiment [2] were 0.44 µM and 11.8 µM, respectively.
The like results for `CC[N+](CC)(CC)CCOc1ccc(/C=C/c2cccc(O)c2)cc1` [Compound 19, (E)-N,N,N-Triethyl-2-(4-(3-hydroxystyryl)phenoxy)ethan-1-aminium Iodide] were, in that order, 0.998 µM and 10.1 µM.
Taken in the same sequence, the figures for `CC[N+](CC)(CC)CCOc1ccc(/C=C/c2cc(OC)cc(OC)c2)cc1` [Compound 21] were 0.676 µM and 1.2 µM.
For `CC[N+](CC)(CC)CCOc1ccc(/C=C/c2ccc3ccccc3c2)cc1` [Compound 11, (E)-N,N,N-Triethyl-2-(4-(2-(naphthalen-2-yl)vinyl)phenoxy)ethan-1-aminium Iodide], the Ki in experiment [1] stood at 0.425 µM.
Regarding `CC[N+](CC)(CC)CCOc1ccc(C(=O)Nc2ccccc2)cc1` [Compound 26, N,N,N-Triethyl-2-(4-(phenylcarbamoyl)phenoxy)ethan-1-aminium Iodide], the Ki is 0.113 µM in experiment [1] and 23 µM in experiment [2]. In addition, the IC50 in experiment [3] (setting [6]) is more than 100 µM; in experiment [3] (setting [7]), more than 100 µM; in experiment [3] (supplementary CSV, read-out: alpha7 nAChR IC50 (AUC)), more than 100 µM; in experiment [3] (supplementary CSV, read-out: alpha7 nAChR IC50 (peak current)) it was more than 100 µM; in experiment [4], 75.9 µM.
Consider `CC[N+](CC)(CC)CCOc1ccc(/C=C/c2cccc(C(F)(F)F)c2)cc1` [Compound 15, (E)-N,N,N-Triethyl-2-(4-(3-(trifluoromethyl)styryl)phenoxy)ethan-1-aminium Iodide], for which the Ki in experiment [1] turned out to be 1.41 µM; in experiment [2] it was 21.8 µM.
Regarding `CC[N+](CC)(CC)CCOc1ccc(/C=C/c2ccc(C(F)(F)F)cc2)cc1` [Compound 16, (E)-N,N,N-Triethyl-2-(4-(4-(trifluoromethyl)styryl)phenoxy)ethan-1-aminium Iodide], the Ki in experiment [1] amounted to 0.874 µM; in experiment [2], 10.4 µM.
Take `CC[N+](CC)(CC)CCOc1ccc(/C=C/c2ccc(OC)cc2)cc1` [Compound 18, (E)-N,N,N-Triethyl-2-(4-(4-methoxystyryl)phenoxy)ethan-1-aminium Iodide]: the inhibition constant Ki in experiment [1] was 0.187 µM.
Consider `CC[N+](CC)(CC)CCOc1ccc(-c2cccc3ccccc23)cc1.[I-]` [Compound 9, N,N,N-Triethyl-2-(4-(naphthalen-1-yl)phenoxy)ethan-1-aminium Iodide], for which the “higher affinity for the α3β4- than for the α7-nAChR” value in experiment [1] (binding affinities) is given as “≈ 30 fold”.
For `CC[N+](CC)(CC)CCOc1ccc(/N=N/c2ccccc2)cc1.[I-]` [Compound 27, (E)-N,N,N-Triethyl-2-(4-(phenyldiazenyl)phenoxy)ethan-1-aminium Iodide], in experiment [3] (setting [8]), the “inhibition of ACh-induced α7-nAChR function (in words)” value is given as “complete or nearly complete inhibition”. Also, the IC50 in experiment [3] (setting [6]) was 5.54 µM; in experiment [3] (setting [7]) it was 11.2 µM; in experiment [4] it was 15.8 µM. For the same compound, the “inhibition of ACh-induced α9α10-nAChR function (in words)” value in experiment [4] is on record as “complete or nearly complete inhibition”.
